Tested on: liver microtissue (MT) of HepaRG hepatocyte strain
Test: Evaluation of drug induced fatty liver toxicity by impedance of liver microtissue
Type: cell-based
Conditions: 0.5 M oleic acid
Description: 1. Completely differentiated HepaRG hepatocyte strain was obtained at the density of 4,000,000 cells/100 uL.
2. A sample was prepared according to the manual of C253000 provided by Microfit Co. 10 μL of cell suspension #1 was distributed in each well to allow 400,000 HepaRG cells to be placed per well. This step can be performed using a 3D cell preparation method such as a micropattern plate method or a hanging drop method.
3. The cells were cultured for 3 days and the cell culture medium was replaced every day.
4. On day 4, the microtissue (MT) was distributed in a 96-well plate (Ultra-Low attachment surface multiple well plate, Corning) using a 100 uL blue tip.
5a. The liver microtissue (MT) distributed in the Ultra-Low attachment surface multiple well plate was treated with 0.5 M oleic acid, a fatty liver toxicity inducing drug.
6a. A 200 μL pipette was inserted in the end of the first glass tube of Example 1 and the liver microtissue (MT) and the culture medium were sucked through the other end to fill the glass tube with preventing air bubble formation.
7a. The glass tube was inserted between the two Y tubes (third tube and fourth tube) of Example 1 and Example 4 with preventing air bubble formation.
8a. Air bubbles in the liquid were removed and let the wire of each Y tube shared the same liquid.
9a. The working electrode/sensing electrode of the potentiostat or impedance analyzer was connected to the gold (Au) wire protruding out of the Y tube (iii tube) and the reference/counter electrode was connected to the platinum (Pt) wire protruding out of the other Y tube (III tube).
10a. The liver microtissue (MT) was placed at the end of the plastic tip by using a 1 mL syringe.
11a. The pressure was set at −5 mPa by using the syringe pump and the liver microtissue (MT) was fixed at the plastic tip by the pressure difference.
12a. Alternating current impedance was measured at a fixed voltage of 50 mV from 10^6 Hz to 10^−2 Hz to measure the impedance of the liver microtissue (MT) and the PBS buffer.
13a. The pressure of the syringe pump was set at 10 mPa to allow the liver microtissue (MT) to be removed from the plastic tip.
14a. Impedance was measured at a fixed voltage of 50 mV from 10^6 Hz to 10^−2 Hz to measure the impedance of the PBS buffer (background).
15a. The interior resistance, the exterior resistance and the capacitance of 12a and the resistance and the capacitance of 14a were measured by using a Fitting program (e.g. Zview).
16a. The interior resistance, the exterior resistance and the capacitance of the liver microtissue (MT) were compared with those of the normal control group. At that time, the normal control group indicates the liver microtissue (MT) not treated with oleic acid which was regarded as a fatty liver toxicity inducing drug.
17a. […]

## CCCCCCCC/C=C\CCCCCCCC(=O)O [oleic acid]
  fat formation in the liver microtissue (MT): fat was formed
Compared with the normal control group, FIG. 2a, 2b, 3
  impedance of the liver microtissue (MT): increased
Compared with the normal control group, according to the pressure changes, FIG. 3
  resistance of the liver microtissue (MT): increased
Fitted with Zview, compared with normal control
  internal resistance of the liver microtissue (MT): increased
